{
  "source": "paper PMC9525273",
  "about": "(Nature Communications, 2022)",
  "key": {"Dd2-B2 parasites": {"system": "Dd2-B2 parasites", "test": "P. falciparum proliferation assay (72 h, flow cytometry, SYBR Green I/MitoTracker)", "type": "cell-based", "details": "Plasmodium falciparum, DD2, read-out: IC50 value", "procedure": "(§1) Two types of parasite proliferation assays were employed in this study, with both yielding highly consistent results. For the NF54-based lines and Dd2-B2-PfATP4^G358S and its parent, assays were initiated with cultures containing predominantly ring-stage parasites with a parasitaemia of 0.3% and a haematocrit of 1%. All assays using NF54 were performed in culture media containing 10% O + human serum. The duration of the assays was 72 h and the concentration of DMSO was <0.5% (v/v). Serial dilutions of the test compounds were performed using a Tecan D300e digital dispenser, with parasite cultures added manually. Parasite survival was assessed by flow cytometry on an Intellicyt iQue3 (Essen Bioscience), with 1× SYBR Green I (Invitrogen) and 200 nM MitoTracker Deep Red FM (Invitrogen) used to stain the nucleus and the mitochondria in live parasites, respectively. The gating strategy used to quantify parasite survival, performed using FlowJo version 10 (FlowJo LLC.), is illustrated in Supplementary Fig. 9. IC50 and IC90 values were calculated by linear interpolation of the dose-response data."}, "[1]": {"system": "Dd2-B2-PfATP4^G358S parasites", "test": "P. falciparum proliferation assay (72 h, flow cytometry, SYBR Green I/MitoTracker)", "type": "cell-based", "details": "Plasmodium falciparum; Dd2-B2-PfATP4G358S; mean ± SEM", "procedure": "as §1"}, "[2]": {"target": "T1, TgATP4^WT (membranes from T. gondii tachyzoites) (Toxoplasma gondii, UniProt B9QMJ0)", "T1 sequence (B9QMJ0 1-1338)": "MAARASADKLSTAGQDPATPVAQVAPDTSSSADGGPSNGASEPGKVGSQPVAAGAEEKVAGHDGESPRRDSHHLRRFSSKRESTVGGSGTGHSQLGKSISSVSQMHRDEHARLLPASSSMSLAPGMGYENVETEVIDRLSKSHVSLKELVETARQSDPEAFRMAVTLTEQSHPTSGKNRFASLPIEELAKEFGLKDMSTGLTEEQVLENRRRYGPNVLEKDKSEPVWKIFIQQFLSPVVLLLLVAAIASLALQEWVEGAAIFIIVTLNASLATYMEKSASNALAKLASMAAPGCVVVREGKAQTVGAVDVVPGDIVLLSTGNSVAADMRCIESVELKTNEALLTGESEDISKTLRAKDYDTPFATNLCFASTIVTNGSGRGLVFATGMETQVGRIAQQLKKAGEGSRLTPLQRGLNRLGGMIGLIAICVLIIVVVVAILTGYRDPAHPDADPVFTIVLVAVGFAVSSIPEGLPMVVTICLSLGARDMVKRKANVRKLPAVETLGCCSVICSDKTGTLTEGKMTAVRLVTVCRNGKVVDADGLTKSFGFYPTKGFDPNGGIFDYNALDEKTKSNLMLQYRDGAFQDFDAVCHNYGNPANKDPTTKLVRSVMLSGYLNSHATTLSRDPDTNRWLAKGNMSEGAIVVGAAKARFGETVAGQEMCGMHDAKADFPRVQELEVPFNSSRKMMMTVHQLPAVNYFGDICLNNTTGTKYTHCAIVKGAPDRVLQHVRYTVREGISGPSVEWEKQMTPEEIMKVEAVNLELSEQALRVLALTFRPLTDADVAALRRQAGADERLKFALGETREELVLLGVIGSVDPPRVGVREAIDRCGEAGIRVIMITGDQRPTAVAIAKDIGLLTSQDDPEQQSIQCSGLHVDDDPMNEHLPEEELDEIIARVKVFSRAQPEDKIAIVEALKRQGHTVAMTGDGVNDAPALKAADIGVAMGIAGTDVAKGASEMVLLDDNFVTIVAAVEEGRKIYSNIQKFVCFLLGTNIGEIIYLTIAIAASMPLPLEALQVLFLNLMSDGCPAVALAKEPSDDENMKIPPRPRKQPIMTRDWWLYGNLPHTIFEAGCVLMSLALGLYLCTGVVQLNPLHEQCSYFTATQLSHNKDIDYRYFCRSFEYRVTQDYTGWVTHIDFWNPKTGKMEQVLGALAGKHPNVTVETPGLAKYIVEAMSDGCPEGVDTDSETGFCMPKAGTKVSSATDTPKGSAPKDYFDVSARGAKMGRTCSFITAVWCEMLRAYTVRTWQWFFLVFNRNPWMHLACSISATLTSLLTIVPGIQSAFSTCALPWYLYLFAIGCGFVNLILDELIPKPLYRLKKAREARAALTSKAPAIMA", "test": "Membrane ATPase assay, ATP4-associated (Na+-dependent) ATPase activity", "type": "biochemical", "design": "IC50 for inhibition of ATP4-associated ATPase activity, MEAN: unit: nM", "procedure": "Membranes from isolated P. falciparum or extracellular T. gondii parasites were prepared by lysing parasites in ice-cold deionized water containing a 1:500 dilution of Protease Inhibitor Cocktail Set III (Merck Millipore), then washing the membrane preparation three times in ice-cold deionized water (with protease inhibitors present for the first two washes)[15]. Protein concentrations in the membrane preparations were measured using a Bradford assay. The PiColorLock Gold Phosphate Detection System (Innova Biosciences) was used to measure the production of Pi from hydrolysis of ATP[15]. Membrane preparations were diluted in either a high Na^+ solution (yielding final conditions in the reactions of 150 mM NaCl, 20 mM KCl, 2 mM MgCl2, 50 mM Tris, pH 7.2) or a Na^+-free solution (yielding final conditions of 150 mM choline chloride, 20 mM KCl, 2 mM MgCl2, 50 mM Tris, pH 7.2) to achieve a total protein concentration of 50 μg/mL. […] The reactions were performed at 37 °C, and were initiated by the addition of 1 mM ATP (Na2ATP۰3H2O; MP Biomedicals) and terminated 10 min later by adding 100 μL of reaction mixture (in duplicate) to 25 μL “Gold mix” in a 96-well plate. “Stabiliser” was added 3 min later, and the plates incubated at room temperature in the dark for 60 min before measuring absorbance at 635 nm. Background values (averaged from wells containing all components, but to which ATP was not added until after the membrane was exposed to Gold mix) were subtracted from the data. For each treatment, the ATPase activity associated with the (Na^+-dependent) PfATP4 and TgATP4 proteins was calculated by subtracting data obtained in the low Na^+ condition (containing only the 2 mM Na^+ introduced on addition of 1 mM Na2ATP) from that obtained in the high Na^+ condition."}},
  "note": "Where “and” joins values, the source holds several entries; their conditions need not be identical. Equal entries are not always repeated. Where two headings read alike, the source gives them in different places.",
  "data": [
    {"smiles": "N#Cc1cc(NC(=O)[C@H]2c3ccccc3C(=O)N(CC(F)(F)F)[C@@H]2c2cccnc2)ccc1F", "note": "[(+)-SJ733]", "values": [
      {"measurement": "IC50", "setting": "Dd2-B2 parasites", "value": "122 ± 7", "unit": "nM"},
      {"measurement": "IC50", "setting": "[1]", "value": "23 ± 3.2", "unit": "µM"},
      {"measurement": "IC50 for inhibition of ATP4-associated ATPase activity, MEAN", "setting": "[2]; WT T. gondii membranes, MEAN, source data of Table 1 (nM there)", "value": 17.77},
      {"measurement": "remaining activity at 0.000122 µM", "setting": "[2]; WT T. gondii, [(+)-SJ733] 0.122 nM, MEAN, read-out: TgATP4-associated ATPase activity (% of control)", "value": 105, "unit": "%"},
      {"measurement": "TgATP4-associated ATPase activity (% of control)", "setting": "[2]; WT T. gondii, [(+)-SJ733] 0.122 nM, single experiments, 0.000122 µM", "value": "99.5 % of control and 113.7 % of control"},
      {"measurement": "remaining activity at 0.000122 µM", "setting": "[2]; WT T. gondii, [(+)-SJ733] 0.122 nM, single experiments, read-out: TgATP4-associated ATPase activity (% of control)", "value": 102, "unit": "%"},
      {"measurement": "remaining activity at 0.000244 µM", "setting": "[2]; WT T. gondii, [(+)-SJ733] 0.244 nM, MEAN, read-out: TgATP4-associated ATPase activity (% of control)", "value": 104, "unit": "%"},
      {"measurement": "TgATP4-associated ATPase activity (% of control)", "setting": "[2]; WT T. gondii, [(+)-SJ733] 0.244 nM, single experiments, 0.000244 µM", "value": "103.7 % of control and 108.4 % of control"},
      {"measurement": "remaining activity at 0.000244 µM", "setting": "[2]; WT T. gondii, [(+)-SJ733] 0.244 nM, single experiments, read-out: TgATP4-associated ATPase activity (% of control)", "value": 99.9, "unit": "%"},
      {"measurement": "remaining activity at 0.0005 µM", "setting": "[2]; WT T. gondii, [(+)-SJ733] 0.5 nM, MEAN, read-out: TgATP4-associated ATPase activity (% of control)", "value": 93.6, "unit": "%"},
      {"measurement": "TgATP4-associated ATPase activity (% of control)", "setting": "[2]; WT T. gondii, [(+)-SJ733] 0.5 nM, single experiments, 0.0005 µM", "value": "96.1 % of control and 95.1 % of control"},
      {"measurement": "remaining activity at 0.0005 µM", "setting": "[2]; WT T. gondii, [(+)-SJ733] 0.5 nM, single experiments, read-out: TgATP4-associated ATPase activity (% of control)", "value": 89.6, "unit": "%"},
      {"measurement": "remaining activity at 0.001 µM", "setting": "[2]; WT T. gondii, [(+)-SJ733] 1.0 nM, MEAN, read-out: TgATP4-associated ATPase activity (% of control)", "value": 102, "unit": "%"},
      {"measurement": "TgATP4-associated ATPase activity (% of control)", "setting": "[2]; WT T. gondii, [(+)-SJ733] 1.0 nM, single experiments, 0.001 µM", "value": "96.8 % of control and 112.7 % of control"},
      {"measurement": "remaining activity at 0.001 µM", "setting": "[2]; WT T. gondii, [(+)-SJ733] 1.0 nM, single experiments, read-out: TgATP4-associated ATPase activity (% of control)", "value": 94.9, "unit": "%"},
      {"measurement": "remaining activity at 0.002 µM", "setting": "[2]; WT T. gondii, [(+)-SJ733] 2.0 nM, MEAN, read-out: TgATP4-associated ATPase activity (% of control)", "value": 95.7, "unit": "%"},
      {"measurement": "TgATP4-associated ATPase activity (% of control)", "setting": "[2]; WT T. gondii, [(+)-SJ733] 2.0 nM, single experiments, 0.002 µM", "value": "71.9 % of control and 96.8 % of control and 118.4 % of control"},
      {"measurement": "remaining activity at 0.0039 µM", "setting": "[2]; WT T. gondii, [(+)-SJ733] 3.9 nM, MEAN, read-out: TgATP4-associated ATPase activity (% of control)", "value": 90.6, "unit": "%"},
      {"measurement": "TgATP4-associated ATPase activity (% of control)", "setting": "[2]; WT T. gondii, [(+)-SJ733] 3.9 nM, single experiments, 0.0039 µM", "value": "69.6 % of control and 88.2 % of control and 113.9 % of control"},
      {"measurement": "remaining activity at 0.0078 µM", "setting": "[2]; WT T. gondii, [(+)-SJ733] 7.8 nM, MEAN, read-out: TgATP4-associated ATPase activity (% of control)", "value": 78.4, "unit": "%"},
      {"measurement": "TgATP4-associated ATPase activity (% of control)", "setting": "[2]; WT T. gondii, [(+)-SJ733] 7.8 nM, single experiments, 0.0078 µM", "value": "63.9 % of control and 63.6 % of control and 107.7 % of control"},
      {"measurement": "remaining activity at 0.0156 µM", "setting": "[2]; WT T. gondii, [(+)-SJ733] 15.6 nM, MEAN, read-out: TgATP4-associated ATPase activity (% of control)", "value": 52.5, "unit": "%"},
      {"measurement": "remaining activity at 0.0313 µM", "setting": "[2]; WT T. gondii, [(+)-SJ733] 31.3 nM, MEAN, read-out: TgATP4-associated ATPase activity (% of control)", "value": 42.7, "unit": "%"},
      {"measurement": "remaining activity at 0.0625 µM", "setting": "[2]; WT T. gondii, [(+)-SJ733] 62.5 nM, MEAN, read-out: TgATP4-associated ATPase activity (% of control)", "value": 31.7, "unit": "%"},
      {"measurement": "remaining activity at 0.25 µM", "setting": "[2]; WT T. gondii, [(+)-SJ733] 250 nM, MEAN, read-out: TgATP4-associated ATPase activity (% of control)", "value": 20.9, "unit": "%"},
      {"measurement": "remaining activity at 0.5 µM", "setting": "[2]; WT T. gondii, [(+)-SJ733] 500 nM, MEAN, read-out: TgATP4-associated ATPase activity (% of control)", "value": 14.7, "unit": "%"},
      {"measurement": "IC50 for ATP4-associated ATPase activity", "setting": "[2]; membranes from WT T. gondii (TgATP4WT), mean ± SEM", "value": "17.8 ± 9.2 (3) nM"}
    ]}
  ]
}
